Reference: patent publication US20050261162A1, “Pharmaceutical composition for preventing and treating cancer and treating an inflammation” (priority 2001, published 2005)

Key:
IκBα = test: Inhibition of IκB degradation in mouse skin treated with TPA (western blotting); format: in vivo; details: mouse skin cytoplasmic extract, topical pretreatment before TPA
Experimental: To examine the effect of xanthorrhizol on IκB, the level of IκB was measured in mouse skin. Cytoplasmic extract was prepared as follows. The mouse skin tissue obtained by the same method of embodiment 4 was homogenized in hypotonic buffer solution [10 mM HEPES, pH 7.8, 10 mM KCl, 2 mM MgCl2, 1 mM DTT, 0.1 mM EDTA, 0.1 mM phenylmethylsulfonyl fluoride (PMSF)]. To the homogenates was added 125 μl of 10% Nondiet P-40 solution and the mixture was then centrifuged for 30 sec. The supernatant (cytoplasmic extract) was electrophoresized on the 12% SDS-polyacrylamide gel. Blot was transferred from SDS-polyacrylamide gel to PVDF membrane, blocked with 5% fat-free dry milk-PBST buffer for 2 hr at room temperature and then washed in PBST buffer. Membrane was incubated for 2 hr at room temperature with rabbit IκBα polyclonal antibody (Santa Cruz Product, Santa Cruz, Calif., USA). Blot was rinsed with PBST, incubated with anti-rabbit horseradish peroxidase-conjugated secondary antibody (Santa Crus product, Santa Cruz, Calif., USA) and again washed 3 times in PBST buffer for 5 min. Transferred protein was visualized with an ECL detection kit.

quinone reductase (QR) = test: Induction of quinone reductase activity in Hepa 1c1c7 cells; format: cell-based, rat; details: 48 hours, compared with the control
Experimental: Hepa 1c1c7 cell (2.5×10^4/ml), a liver cancer cell of […], was seeded into 96 well plate and was cultured in 10% FBS-αL-MEM (Gibco BRL) at 37° C. for 24 hours in 5% CO2 of humidified air. 190 μl of fresh media and 10 μl of xanthorrhizol dissolved in 10% of DMSO was added to above culture media and it was cultured under 5% CO2 at 37° C. for 48 hours. The culture media were discarded, and after washing with PBS (phosphate buffered saline), 50 μl of reaction solution containing 0.8% digitonin and 2 mM EDTA was added to each well, and it was cultured for 10 minutes to destroy the cell. […] Then, 50 μl of 5 mM potassium phosphate (pH 7.4) solution containing 0.3 mM of dicoumarol was added to terminate the reaction and the absorbance at 595 nm was measured spectrophotometrically.
To assess the effect of xanthorrhizol on cell growth, protein was measured in the 2nd plate set cultured under same condition above. […] And 200 μl of 0.5% SDS was added to cell and mixed, then the absorbance at 595 nm was measured spectophotometrically.
To estimate the experimental result, firstly, QR specific activity of each group treated with xanthorrhizol and the control group was calculated by following equation 1. […] QR specific activity=(Absorbance change of MTT per min/Absorbance change of crystal violet)×3247 nmol/mg [Equation 1] […]

COX-2 = test: Inhibition of COX-2 expression induced by TPA in mouse skin (western blotting); format: in vivo, ICR mice; details: topical pretreatment 30 min before TPA 10 nmol; skin taken 4 hr later
Experimental: It is known that the expression of COX-2 increases in mouse skin treated with TPA. Therefore, the effect of xanthorrhizol on COX-2 expression induced by TPA was measured as follows on the basis of this fact.
Female ICR mice of about 5 weeks of age were purchased from the Daehan Experimental Animal Center (Seoul, Korea). Mice were kept on a 12 h light/dark cycle.
The dorsal region of mice was shaved with an electric clipper. 2 days later, xanthorrhizol dissolved in 0.2 ml acetone was topically applied on mouse skin followed by topical application of TPA (10 nmol) dissolved in 0.2 ml acetone after 30 min. Mice were sacrificed by cervical dislocation 4 hr later. The skin was excised and the fat was removed. Fat-free skin was immediately placed in liquid nitrogen and pulverized in mortar.
Pulverized mouse skin was lysed in 400 μl of lysis buffer [150 mM NaCl, 0.5% Triton X-100, 50 mM tris-HCl, pH 7.4, 20 mM EGTA, 1 mM DTT, 1 mM Na3VO4, protease inhibitor cocktail tablet] for 30 min on ice. Lysates were centrifuged and total protein in supernatant was quantified by Bio-Rad protein assay. Aliquots of supernatant containing 30 μg protein were boiled in SDS sample loading buffer for 5 min before electrophoresis on a 12% SDS-polyacrylamide gel. […]

[1] = tested on: skin tumor formation induced by DMBA and TPA; test: Two-stage mouse skin carcinogenesis model (DMBA/TPA); format: in vivo, ICR mice
Text: The chemoprotective effect of xanthorrhizol and the methanolic extract of Curcuma xanthorrhiza Roxb. against tumor formation was investigated in multistage mouse carcinogenesis induced by tumor initiator (DMBA) and tumor promoter (TPA).
To evaluate the inhibitory effect of xanthorrhizol and the methanolic extract of Curcuma xanthoffhiza Roxb. against tumor formation, 30 mice (6 weeks age, female) per an experimental group was used. The dorsal region of ICR mice was shaved with an electric clipper. After a topical application of 0.2 μmol DMBA in 0.2 ml acetone, mice were treated topically with xanthorrhizol or the methanolic extract of Curcuma xanthorrhiza 30 min prior to each topical application of 10 nmol TPA in 0.2 ml acetone which was continued three times weekly for 19 weeks. The negative control was treated with only 0.2 ml acetone. Tumors were counted and recorded biweekly. The results were expressed as the average number of tumors per mouse (tumor multiplicity) and the percentage of tumor-bearing mice (tumor incidence) and are shown at FIG. 3 and FIG. 4. […] FIG. 4 is a photograph representing the inhibitory effect of xanthorrhizol against tumor formation at 19 weeks.

Structure (SMILES): CC(C)=CCC[C@@H](C)c1ccc(C)c(O)c1 [xanthorrhizol]
- degradation of IκBα induced by TPA (IκBα): inhibited by xanthorrhizol in a dose dependent manner
- QR induction ratio (treated/control) (quinone reductase (QR); 0.4 μM): about 125%
- QR induction ratio (treated/control) (quinone reductase (QR); 50 μM): ~130%
- expression of COX-2 induced by TPA (COX-2): decreased by pretreatment with xanthorrhizol in a dose-dependent manner
- average number of skin tumors per mouse (tumor multiplicity) ([1]; 6 μmol topical, three times per week for 19 weeks, DMBA/TPA control 15.5): 4.0 skin tumors per mouse
- percentage of tumor-bearing mice (tumor incidence) ([1]; 6 μmol topical, three times per week for 19 weeks, all DMBA/TPA control mice had tumors): 57%
- tumor formation ([1]; topical application 30 min prior to each TPA, three times weekly for 19 weeks): inhibits tumor formation dose-dependently
